How the values were obtained:
rats (male, Wistar) = experiment: Complete Freund's Adjuvant (CFA) model of inflammatory pain in rats; format: in vivo; details: 30 mg/kg dose
Description: Representative compounds of the invention (i.e., test compounds) were tested in this model of inflammatory pain. The rats (male, Wistar) were acclimatized to the instruments (plantar test surface and dynamic plantar aesthesiometer) on two consecutive days prior to the initiation of the study. On Day 0, basal paw withdrawal latency and paw withdrawal threshold were taken and animals were randomized to different groups. Complete Freund's Adjuvant (CFA) at 1 mg/mL (0.1 mL) was injected into the plantar surface of right hind paw. Test compounds (3 or 30 mg/kg) were administered PO, twice (Day 0 and Day 1) or once, on Day 1 (24 h after CFA). Thermal hyperalgesia and mechanical allodynia were assessed at 0 (baseline), 1, 3 and 6 h after administration of the test compound on Day 1. Diclofenac was used as a reference compound, given once on Day 1.

[1] = system: Rats (male, Sprague-Dawley); experiment: Rat carrageenan-induced hyperalgesia and paw edema; format: in vivo; details: 10 mg/kg, given 1 h prior to carrageenan challenge
Description: Representative compounds of the invention (i.e., test compounds) were administered PO, QD for 3 days prior to carrageenan injection, once at 1 h prior to carrageen, or at 5 min or 1 h post-challenge to rats (male, Sprague-Dawley). Rats received either an intraplantar injection of saline (sham) or carrageen (0.1 mL of a 2% solution [w/v]) in the right hind paw. Mechanical hyperalgesia (using an analgesymeter) and paw volume (using a digital plethysmometer) were measured at baseline (0 hr), 2, 4 and 6 h post carrageenan injection for all the animals. Celecoxib, given 1 h prior to carrageen challenge, was used as a reference standard.

| SMILES | increase in the paw withdrawal threshold (rats (male, Wistar)) | increase in the paw withdrawal threshold [1] |
| --- | --- | --- |
| O=C(O)Cc1ccccc1Nc1c(Cl)cccc1Cl [diclofenac, reference compound] | 62% | – |
| Cc1ccc(-c2cc(C(F)(F)F)nn2-c2ccc(S(N)(=O)=O)cc2)cc1 [celecoxib, reference compound] | – | 59% |

From patent publication US11420962B2, “Indene derivatives useful in treating pain and inflammation” (TARO PHARMACEUTICALS INC., priority 2018, dated 2022)
